The source of these data is patent US20200297746A1, “COMPOSITION FOR REDUCING WEIGHT AND LOWERING LIPID, PREPARATION METHOD THEREFOR AND USE THEREOF” (CATCH BIO-SCIENCE & TECHNOLOGY CO., LTD., priority 2017, published 2020).

Assay [1] relates to obesity model rats fed with the high-fat feed. As to the kind of experiment: Weight reducing effect in rats fed high-fat feed, 7 weeks of administration via lavage. Type of assay: in vivo, male Spague-Dawlay (SD) Rats. Particulars: high-fat feed SD rats, 80 mg/kg via lavage once daily for 7 weeks, x ± s, n = 10. The text has this: The feed is commercially available. The high-fat feed comprises 75% base feed, 2% cholesterol, 0.5% sodium cholate, 15% lard, and 7.5% egg yolk. 150 male Spague-Dawlay (SD) Rats of clean grade, each aged 4 weeks and weighed 150-180 g, are provided by Shanghai Lingchang Biotechnology Co., Ltd. The rats are fed in separate plastic cages, given free access to water and feed for 7 days to adapt to the environment, and then quarantined. 140 rats of similar weight are selected from the 150 rats, randomly divided into 14 groups, with 10 rats in each group, including experimental groups 1-8, comparative experiment groups 1-4, a model control group and a blank control group. Rats in the blank control group are fed with the base feed, and rats in other groups are fed with the high-fat feed. Rats in the experimental groups 1-8 are respectively administered via lavage with 80 mg/kg of the pharmaceutical compositions prepared in Examples 1-8; rats in the comparative experiment groups 1-4 are respectively administered via lavage with 80 mg/kg of phloridzin, 80 mg/kg of the extract from Curcuma longa L., 80 mg/kg of epigallocatechin gallate and 80 mg/kg of the extract from […] folium; and rats in the model control group and the blank control group are administered via lavage with equivalent amounts of saline. Rats in each group receive administration once daily for 7 continuous weeks. (1) After 7 weeks of administration, the weight and weight gain of rats in each group are observed and recorded; (2) Rats are anesthetized with ether, and fat pads surrounding the genitalia and kidney and the fat of the omentum are separated and weighed. A fat-to-weight ratio is calculated according to the following equation: fat-to-weight ratio (%)=(weight of fat surrounding the genitalia+weight of fat surrounding kidney+weight of fat of the omentum)/body weight×100%; Data processing is performed using SPSS 20.0 software. Differences between the groups are analyzed using a single-factor variance analysis.

Assay [2] concerns hyperlipemia model rats fed with the high-fat feed. As to the kind of experiment: Blood lipid lowering effect in rats fed high-fat feed, serum biochemical parameters by enzymatic method. Type of assay: in vivo, male Spague-Dawlay (SD) Rats. Particulars: high-fat feed SD rats, 80 mg/kg via lavage once daily for 7 weeks, x ± s, n = 10. An excerpt: The feed is commercially available. The high-fat feed comprises 75% base feed, 2% cholesterol, 0.5% sodium cholate, 15% lard, and 7.5% egg yolk. 150 male Spague-Dawlay (SD) Rats of clean grade, each aged 4 weeks and weighed 150-180 g, are provided by Shanghai Lingchang Biotechnology Co., Ltd. The rats are fed in separate plastic cages, given free access to water and feed for 7 days to adapt to the environment, and then quarantined.
140 rats of similar weight are selected from the 150 rats, randomly divided into 14 groups, with 10 rats in each group, including experimental groups 1-8, comparative experiment groups 1-4, a model control group and a blank control group. Rats in the blank control group are fed with the base feed, and rats in other groups are fed with the high-fat feed.
Rats in the experimental groups 1-8 are respectively administered via lavage with 80 mg/kg of the pharmaceutical compositions prepared in Examples 1-8; rats in the comparative experiment groups 1-4 are respectively administered via lavage with 80 mg/kg of phloridzin, 80 mg/kg of the extract from Curcuma longa L., 80 mg/kg of epigallocatechin gallate and 80 mg/kg of the extract from sennae folium; and rats in the model control group and the blank control group are administered via lavage with equivalent amounts of saline.
Rats in each group receive administration once daily for 7 continuous weeks.
(3) After 7 weeks of administration, blood are collected from orbital posterior venous plexus of the rats and analyzed with an enzymatic method on a full-automatic biochemical analyzer to quantitatively determine levels of triglycerides (TG), total cholesterol (TC), high density lipoprotein cholesterol (HDL-C), and low density lipoprotein cholesterol (LDL-C) in serum.
Data processing is performed using SPSS 20.0 software. Differences between the groups are analyzed using a single-factor variance analysis.

Structures are written as SMILES.

Take `O=C(CCc1ccc(O)cc1)c1c(O)cc(O)cc1O[C@@H]1O[C@H](CO)[C@@H](O)[C@H](O)[C@H]1O` [Comparative experiment Group 1, phloridzin]: in assay [1], the Body weight gain is listed as 161.35 ± 20.01 g and the Fat-to-weight ratio is recorded as 5.87 ± 0.72 %. For the same molecule, in assay [2], the HDL-C turned out to be 0.72 ± 0.10 mmol/L, the LDL-C is 0.49 ± 0.10 mmol/L, the TC is reported as 2.21 ± 0.51 mmol/L and the TG amounted to 1.56 ± 0.39 mmol/L.

For the molecule `O=C(O[C@@H]1Cc2c(O)cc(O)cc2O[C@@H]1c1cc(O)c(O)c(O)c1)c1cc(O)c(O)c(O)c1` [Comparative experiment Group 3, epigallocatechin gallate], in assay [1], the Body weight gain worked out at 189.76 ± 22.25 g and the Fat-to-weight ratio turned out to be 7.48 ± 0.53%. Moreover, in assay [2], the HDL-C was found to be 0.59 ± 0.12 mmol/L, the LDL-C is reported as 0.55 ± 0.12 mmol/L, the TC is listed as 2.55 ± 0.43 mmol/L and the TG is 1.77 ± 0.41 mmol/L.
